Measurements reported in US20150018403A1, “FLUORENE-AMIDE COMPOUNDS AND PHARMACEUTICAL USE THEREOF” (JAPAN TOBACCO INC., priority 2013, published 2015).

Key:
[1] = target: T1, hERG (Homo sapiens, UniProt Q12809); test: hERG whole cell patch clamp test; assay type: cell-based; conditions: human, HEK293 cells transfected with hERG, pH 7.4, read-out: hERG inhibition rate (%); for inhibition at 10 μmol/L: concentration 10 μmol/L
T1 construct: host or cells: HEK293
Procedure: (§1) Using human ether-a-go-go related gene (hERG)-transfected HEK293 cells (Cytomyx Limited), an influence on hERG current was examined according to the whole cell patch clamp technique. The hERG-transfected HEK293 cells were passaged using a CO2 incubator (BNA-111, TABAI ESPEC CORP.) under the set conditions of 37° C., 5% CO2, saturated humidity. Culture containers used were Collagen Type I Coated 75 cm^2 flask (4123-010, AGC TECHNO GLASS CO., Ltd.) and Collagen Type I Coated 35 mm culture dish (4000-010, AGC TECHNO GLASS CO., Ltd.). The culture medium used was E-MEM (Eagle Minimum Essential Medium (Earle's Salts, Nikken biomedical laboratory) added with 10% FCS (Fetal bovine serum, BioWest, L.L.C.) and 1% MEM Non-Essential Amino Acids Solution (NEAA, Invitrogen Corporation). Geneticin for the selection of hERG gene expressing cells was added thereto to a concentration of 400 μg/mL. As the cells for the measurement, 3×10^4 hERG-transfected HEK293 cells were plated on a 35 mm culture dish 4 to 7 days before measurement of the hERG current. The culture dish produced for the measurement contained the above-mentioned culture medium without geneticin (Invitrogen Corporation).
(§2) The highest evaluation concentration of each compound was determined from the highest concentration at which precipitation was not found in the standard extracellular fluid (NaCl: 140 mmol/L, KCl: 2.5 mmol/L, MgCl2: 2 mmol/L, CaCl2: 2 mmol/L, HEPES: 10 mmol/L, glucose: 10 mmol/L (adjusted to pH 7.4 with Tris-base)). As the application method, each solution to be applied was ejected from a Y-tube having a tip diameter of about 0.25 mm, which was adjacent (about 2 mm) to the cells, and applied to the cells. The ejection rate was about 0.4 mL/min.
(§3) The experiment was performed at room temperature under a phase contrast microscope. The 35 mm culture dish plated with the cells was set on a measurement apparatus, and the standard extracellular fluid was continuously applied to the cells from the Y-tube. A glass electrode for the measurement was filled with an intracellular fluid (Potassium Gluconate: 130 mmol/L, KCl: 20 mmol/L, MgCl2: 1 mmol/L, ATP-Mg: 5 mmol/L, EGTA: 3.5 mmol/L, HEPES: 10 mmol/L (adjusted to pH 7.2 with Tris-base)). A conventional whole cell patch clamp method was applied to the cells, and the maintenance electric potential was set to −80 mV. Under a fixed electric potential, the whole cell current was amplified by an amplifier for patch clamp (AXOPATCH-200B, Axon Instruments, Inc.), and the data was loaded into a computer (IMC-P642400, Intermedical Co., Ltd.) using a data acquisition analysis software (pCLAMP 9.2, Axon Instruments, Inc.).
(§4) The measurement of the hERG current was performed in the following two steps. In both cases, the hERG current was initiated by giving a command potential (maintenance electric potential −80 mV, prepulse+20 mV, 1.5 sec, test-pulse −50 mV, 1.5 sec).
(§5) Step (1): The above-mentioned command potential was given at 0.1 Hz for 2 min.
(§6) Step (2): The above-mentioned command potential was subjected to P/3 subtraction of pCLAMP 9.2 to remove leak current. This was repeated three times and an average thereof was taken as hERG current.
(§7) Subsequent to step (1), Step (2) was performed (about 3 min), and the maximum tail current obtained by applying a test-pulse to the hERG current obtained by the method of step (2) was taken as hERG current value. Hereafter, the operations of (1) and (2) were alternately repeated until completion of the experiment and the hERG current value was measured.
(§8) Stable hERG current value was recorded three times (about 10 min), and the standard extracellular fluid was instantaneously exchanged with each application fluid. The hERG current value was measured three times (about 10 min) in the same manner during perfusion of the application fluid, and the current value obtained by the 3rd measurement was taken as hERG current value after perfusion of the application fluid. […]

[2] = target: T2, hERG current (hERG-transfected HEK293 cells) (Homo sapiens, UniProt Q12809); test: hERG whole cell patch clamp test; assay type: cell-based; conditions: whole cell patch clamp, hERG-transfected HEK293 cells
T2 construct: host or cells: HEK293
Procedure: as §1, §2, §3, §4, §5, §6, §7, §8

[3] = Effect of repeated administration on HbA1c in ZDF rats; assay type: in vivo, Zucker Diabetic Fatty rats; conditions: 1 mg/kg oral once daily, day 27 of administration, vehicle 4.4 ± 0.4, p < 0.05 vs. vehicle
Procedure: Zucker Diabetic Fatty rats (male, 7-week-old, CHARLES RIVER LABORATORIES JAPAN INC.), an animal model for type 2 diabetes, given a purified diet (5.9% fat diet, Oriental Yeast Co., Ltd.) were allocated to the vehicle group and the test compound groups so that no bias occurred in the plasma glucose and insulin levels, HbA1c levels and body weights. Repeated oral doses of the test compound (1 mg/kg/5 mL) were administered to the rats once daily at 3 hr before the dark period. A 0.5% aqueous methylcellulose solution was orally administered in the same manner to the rats of the vehicle group. On day 27 of administration, blood samples were collected from the tail vein and HbA1c level (%) was measured. Statistical analysis was performed by Dunnett's test. Values of p<0.05 were considered statistically significant.

T1 sequence (Q12809 whole entry): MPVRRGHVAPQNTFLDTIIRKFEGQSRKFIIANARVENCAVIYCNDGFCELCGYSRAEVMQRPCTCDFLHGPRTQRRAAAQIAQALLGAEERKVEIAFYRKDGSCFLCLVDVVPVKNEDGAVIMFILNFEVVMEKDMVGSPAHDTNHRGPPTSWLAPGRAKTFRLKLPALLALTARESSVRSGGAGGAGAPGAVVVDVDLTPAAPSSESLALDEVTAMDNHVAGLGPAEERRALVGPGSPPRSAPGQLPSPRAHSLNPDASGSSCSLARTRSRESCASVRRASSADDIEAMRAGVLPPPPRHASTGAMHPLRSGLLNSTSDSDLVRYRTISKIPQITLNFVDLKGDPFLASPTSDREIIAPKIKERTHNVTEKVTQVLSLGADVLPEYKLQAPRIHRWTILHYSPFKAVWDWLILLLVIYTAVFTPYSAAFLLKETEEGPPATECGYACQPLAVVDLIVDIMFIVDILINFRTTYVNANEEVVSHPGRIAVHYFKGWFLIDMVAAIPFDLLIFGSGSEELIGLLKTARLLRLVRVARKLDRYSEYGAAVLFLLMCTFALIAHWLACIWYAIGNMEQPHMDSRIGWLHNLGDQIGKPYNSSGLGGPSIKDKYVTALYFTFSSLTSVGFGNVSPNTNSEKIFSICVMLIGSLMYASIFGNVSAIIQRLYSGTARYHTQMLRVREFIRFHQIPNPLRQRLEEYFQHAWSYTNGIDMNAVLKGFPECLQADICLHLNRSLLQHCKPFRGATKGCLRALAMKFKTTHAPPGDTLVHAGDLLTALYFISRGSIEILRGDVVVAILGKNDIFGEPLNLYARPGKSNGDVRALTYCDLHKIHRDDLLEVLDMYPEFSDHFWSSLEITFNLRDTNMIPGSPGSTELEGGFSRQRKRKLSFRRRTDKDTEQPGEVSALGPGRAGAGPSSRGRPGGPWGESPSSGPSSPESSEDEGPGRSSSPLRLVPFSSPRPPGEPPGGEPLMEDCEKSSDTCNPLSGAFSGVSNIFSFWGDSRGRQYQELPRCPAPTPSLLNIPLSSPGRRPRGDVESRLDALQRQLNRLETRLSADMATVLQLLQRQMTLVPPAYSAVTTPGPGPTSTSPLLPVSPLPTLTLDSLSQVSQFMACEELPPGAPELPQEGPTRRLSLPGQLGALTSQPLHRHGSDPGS
T2 sequence (Q12809 whole entry): as above

Row | Compound | inhibition at 1 μmol/L ([1]; concentration 1 μmol/L) | inhibition at 10 μmol/L [1] | IC50 [2] | HbA1c (%) [3] | inhibition at 100 μmol/L ([1]; concentration 100 μmol/L)
1 | Cn1cc(-c2cc(OCC(C)(C)O)cc3c2-c2ccccc2[C@]3(O)C(F)(F)F)cn1 [compound (B), (9R)-2-(2-Hydroxy-2-methylpropoxy)-4-(1-methyl-1H-pyrazol-4-yl)-9-(trifluoromethyl)-9H-fluoren-9-ol, reference compound] | 17.4% | 72.9% | 3.6 µM | – | –
2 | C[C@H](O)COc1cc(-c2cnn(C(C)(C)C(N)=O)c2)c2c(c1)[C@@](O)(C(F)(F)F)c1ccccc1-2 [compound (2), 2-(4-{(9R)-9-hydroxy-2-[(2S)-2-hydroxypropoxy]-9-(trifluoromethyl)-9H-fluoren-4-yl}-1H-pyrazol-1-yl)-2-methylpropanamide] | – | 7.5% | 58.8 µM | 3.9 ± 0.5 % | 62.9%
